Data on two compounds can be found in patent US12065434B2, “Metabolites of GLP1R agonists” (Pfizer Inc., priority 2020, dated 2024).

In one data set the test system is rabbit hepatocytes. Kind of data set: In vitro metabolism of Compound 2 in rabbit cryopreserved hepatocytes. Also noted: key to Relative abundance of metabolite of Compound 2, Rabbit: ND Not detected.; trace: Trace: observed by HPLC/MS measurements only.; + Minor as assessed by HPLC/UV measurements; ++ moderate as assessed by HPLC/UV measurements; +++ major as assessed by HPLC/UV measurements.; * m/z 593 and m/z 505 co-eluted in rabbit hepatocytes.; ** m/z 591 c and m/z 593 were merged in human hepatocytes and Hepatopack.; *** m/z 607 and m/z 751 b were merged in rabbit hepatocytes. As to conditions: for metabolite of Compound 2 observed in rabbit hepatocyte incubations: 10 μM Compound 2, 7.5×10^5 cells/mL, 1 and 4 hrs composite. The class given is in vitro ADME. On the procedure:
(§1) Male CD-1 mouse hepatocytes (lot YHL), male Wistar-Han rat hepatocytes (Celsius; product number: M000065; lot: SLA), female New Zealand rabbit hepatocytes (lot 1510147), male cryopreserved cynomolgus monkey hepatocytes (Celsius; product number: M00305; lot: DNB) and mixed-gender cryopreserved human hepatocytes (Bioreclamation; product number: S01988; lot: DCM) were obtained for the hepatocyte in-vitro assessments.
(§2) At time 0 hrs 550 μL aliquots were removed from incubations and quenched with 5 volumes of ACN containing 0.1% formic acid. At 1 and 4 hrs, 275 μL aliquots were removed and quenched as above; these were combined in the same tube to prepare a composite sample. For all hepatocyte experiments, samples were processed by centrifugation at 1900×g for 5 minutes, and then the supernatant was transferred to clean glass tubes and evaporated to dryness under a stream of N2 using a Turbovap at 37° C. Sample residues were reconstituted in mobile phase prior to analysis by HPLC/UV/MS^n.
(§3) Samples were analyzed by HPLC/UV/MS^n using a Thermo Orbitrap Elite mass spectrometer in conjunction with a Thermo Open Accela UHPLC system. A 3.0×150 mm, 2.5 μm Acquity CSH C18 HPLC column (Waters) was heated to 45° C. for separation of analytes. The mobile phase was a gradient of A): water containing 0.1% formic acid, and B): acetonitrile. The flow rate was 450 μL/min, and the following gradient program was utilized: […]
(§4) UV absorbance was monitored with a photo-diode array detector from 220-450 nm. The mass spectrometer was operated in positive-ion mode with a HESI ion source at a potential of 3.0 kV, and capillary and source heater temperatures of 380 and 300° C., respectively. Sheath, auxiliary, and sweep gas flows were set to 45, 10, and 2 units, respectively. Full scan mass spectra were acquired over the range 120-1200 m/z at a resolving power of 30,000 (specified at m/z 400). Data-dependent MS^n spectra were acquired in an automated fashion at 15,000 resolving power using CID and HCD fragmentation with normalized collision energy settings of 28 and 65 V, respectively.
(§5) Metabolites were characterized by comparisons of mass spectral fragmentation patterns with that of a Compound 2 standard. All HPLC/UV/MS^n data were processed using Xcalibur v. 2.2, and integrated UV peak areas were subjected to weighted UV binning procedures utilizing an Excel template.

Data set [1] is described as follows: Metabolites of Compound 2 in rat bile following a 1.0 mg/kg IV bolus dose. As to conditions: 1.0 mg/kg IV bolus dose of Compound 2, bile duct cannulated rats, pooled 0-24 hrs. It counts as in vivo. The procedure:
Plasma and bile samples were obtained from a bile duct cannulated rat experiment (Study PK-0111) in which a 1.0 mg/kg IV bolus dose was administered to fed male rats (N=3). No control plasma was available from this experiment.
Bile samples (0-3, 3-7, and 7-24 hrs) from individual animals were pooled in proportion to the amount collect in each interval. Then 0.5 mL of each individual pool was combined to prepare a composite sample for analysis.
Pooled plasma and bile samples were extracted with ACN containing 0.1% formic acid, and after centrifugation at 1900×g, the supernatant was transferred to clean tubes and evaporated under N2 in a Turbovap set at 37° C. Residues were reconstituted in mobile phase (5:95 v:v ACN:0.1% aqueous formic acid) prior to analysis by HPLC/UV/MS^n.
as §3, §4, §5

For another data set, the system named is mouse hepatocytes. Put plainly: In vitro metabolism of Compound 2 in mouse cryopreserved hepatocytes. It counts as in vitro ADME. Also noted: key to Relative abundance of metabolite of Compound 2, Mouse: ND Not detected.; trace: Trace: observed by HPLC/MS measurements only.; + Minor as assessed by HPLC/UV measurements; ++ moderate as assessed by HPLC/UV measurements; +++ major as assessed by HPLC/UV measurements.; * m/z 593 and m/z 505 co-eluted in rabbit hepatocytes.; ** m/z 591 c and m/z 593 were merged in human hepatocytes and Hepatopack.; *** m/z 607 and m/z 751 b were merged in rabbit hepatocytes. The settings on record: for metabolite of Compound 2 observed in mouse hepatocyte incubations: 10 μM Compound 2, 7.5×10^5 cells/mL, 1 and 4 hrs composite. The procedure:
as §1, §2, §3, §4, §5

For a further data set, the system named is rat hepatocytes. Put plainly: In vitro metabolism of Compound 2 in rat cryopreserved hepatocytes. It counts as in vitro ADME. As to conditions: for metabolite of Compound 2 observed in rat hepatocyte incubations: 10 μM Compound 2, 7.5×10^5 cells/mL, 1 and 4 hrs composite. Also noted: key to Relative abundance of metabolite of Compound 2, Rat: ND Not detected.; trace: Trace: observed by HPLC/MS measurements only.; + Minor as assessed by HPLC/UV measurements; ++ moderate as assessed by HPLC/UV measurements; +++ major as assessed by HPLC/UV measurements.; * m/z 593 and m/z 505 co-eluted in rabbit hepatocytes.; ** m/z 591 c and m/z 593 were merged in human hepatocytes and Hepatopack.; *** m/z 607 and m/z 751 b were merged in rabbit hepatocytes. The procedure: as §1, §2, §3, §4, §5

A further data set concerns the target T1, human GLP-1R (Homo sapiens, UniProt P43220, L260F).
T1 construct: expressed in transfected cells
Kind of data set: CHO GLP-1R Clone C6 - Assay 2 (HTRF cAMP agonist assay, low receptor density). The settings on record: CHO GLP-1R Clone C6 (low receptor density), arithmetic mean, relative to 1 μM GLP-1. It counts as cell-based. For orientation: Time-resolved FRET reads energy transfer from a long-lived donor to a nearby acceptor.

T1 sequence (P43220 24-463 L260F): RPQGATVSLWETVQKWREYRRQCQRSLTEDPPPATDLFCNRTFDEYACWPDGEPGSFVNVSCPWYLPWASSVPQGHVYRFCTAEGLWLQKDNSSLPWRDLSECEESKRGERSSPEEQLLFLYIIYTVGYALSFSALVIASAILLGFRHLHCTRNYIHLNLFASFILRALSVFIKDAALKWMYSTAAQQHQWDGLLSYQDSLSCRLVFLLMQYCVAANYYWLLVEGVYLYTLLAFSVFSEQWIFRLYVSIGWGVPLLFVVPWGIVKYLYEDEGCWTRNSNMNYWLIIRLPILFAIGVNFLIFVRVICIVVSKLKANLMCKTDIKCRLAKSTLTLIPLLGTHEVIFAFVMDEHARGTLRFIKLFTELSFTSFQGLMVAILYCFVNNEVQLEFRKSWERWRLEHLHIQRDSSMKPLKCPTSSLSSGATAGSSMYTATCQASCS
Protocol for human GLP-1R: GLP-1R-mediated agonist activity was determined with a cell-based functional assay utilizing an HTRF (Homogeneous Time-Resolved Fluorescence) cAMP detection kit (cAMP HI Range Assay Kit; Cis Bio cat #62AM6PEJ) that measures cAMP levels in the cell. The method is a competitive immunoassay between native cAMP produced by the cells and exogenous cAMP labeled with the dye d2. The tracer binding is visualized by a mAb anti-cAMP labeled with Cryptate. The specific signal (i.e. energy transfer) is inversely proportional to the concentration of cAMP in either a standard or an experimental sample.
The human GLP-1R coding sequence (NCBI Reference Sequence NP_002053.3, including naturally-occurring variant Leu260Phe) was subcloned into pcDNA5-FRT-TO and a clonal CHO cell line stably expressing a low receptor density was isolated using the Flp-In™ T-Rex™ System, as described by the manufacturer (ThermoFisher).
Cells were removed from cryopreservation, re-suspended in 40 mL of Dulbecco's Phosphate Buffered Saline (DPBS—Lonza Cat #17-512Q) and centrifuged at 800×g for 5 minutes at 22° C. The DPBS was aspirated, and the cell pellet was re-suspended in 10 mL of complete growth medium (DMEM:F12 1:1 Mixture with HEPES, L-Gln, 500 mL (DMEM/F12 Lonza Cat #12-719F), 10% heat inactivated fetal bovine serum (Gibco Cat #16140-071), 5 mL of 100× Pen-Strep (Gibco Cat #15140-122), 5 mL of 100× L-Glutamine (Gibco Cat #25030-081), 700 μg/mL Hygromycin (Invitrogen Cat #10687010) and 15 μg/mL Blasticidin (Gibco Cat #R21001). A 1 mL sample of the cell suspension in growth media was counted on a Becton Dickinson ViCell to determine cell viability and cell count per mL. The remaining cell suspension was then adjusted with growth media to deliver 1600 viable cells per well using a Matrix Combi Multidrop reagent dispenser, and the cells were dispensed into a white 384 well tissue culture treated assay plate (Corning 3570). The assay plate was then incubated for 48 hours at 37° C. in a humidified environment (95% O2, 5% CO2)
Varying concentrations of each compound to be tested (in DMSO) were diluted in assay buffer [HBSS with Calcium/Magnesium (Lonza/BioWhittaker cat #10-527F)/0.1% BSA (Sigma Aldrich cat #A7409-1L)/20 mM HEPES (Lonza/BioWhittaker cat #17-737E)] containing 100 μM 3-isobutyl-1-methylxanthin (IBMX; Sigma cat #15879). The final DMSO concentration in the compound/assay buffer mixture is 1%.
After 48 hours, the growth media was removed from the assay plate wells, and the cells were treated with 20 μL of the serially diluted compound in assay buffer for 30 minutes at 37° C. in a humidified environment (95% O2, 5% CO2). Following the 30 minute incubation, 10 μL of labeled d2 cAMP and 10 μL of anti-cAMP antibody (both diluted 1:20 in cell lysis buffer; as described in the manufacturer's assay protocol) were added to each well of the assay plate. The plates were then incubated at room temperature and after 60 minutes, changes in the HTRF signal were read with an Envision 2104 multi-label plate reader using excitation of 330 nm and emissions of 615 and 665 nm. Raw data were converted to nM cAMP by interpolation from a cAMP standard curve (as described in the manufacturer's assay protocol) and the percent effect was determined relative to a saturating concentration of the full agonist GLP-1 (1 μM) included on each plate. EC50 determinations were made from agonist dose response curves analyzed with a curve fitting program using a 4-parameter logistic dose response equation.

As to `C[C@]1(c2ccc(Cl)cn2)Oc2cccc(C3CCNCC3)c2O1` [Metabolite 331], in the data set on rabbit hepatocytes, the “metabolite of Compound 2 observed in rabbit hepatocyte incubations” value is on record as “observed in all hepatocyte incubations”. Besides, the “Relative abundance of metabolite of Compound 2, Rabbit” value with rabbit hepatocytes (rabbit cryopreserved hepatocytes, HPLC/UV/MS) is given as “trace”. In addition, the “detected in rat bile” value is listed as “observed” in data set [1] and “detected” in data set [1] (listed as m/z 331). Also, the “metabolite of Compound 2 observed in mouse hepatocyte incubations” value in the data set with mouse hepatocytes is on record as “observed in all hepatocyte incubations”. The “Relative abundance of metabolite of Compound 2, Mouse” value with mouse hepatocytes (mouse cryopreserved hepatocytes, HPLC/UV/MS) is given as “+”. Besides, the “metabolite of Compound 2 observed in rat hepatocyte incubations” value with rat hepatocytes is “observed in all hepatocyte incubations”. In addition, the “Relative abundance of metabolite of Compound 2, Rat” value in the data set with rat hepatocytes (rat cryopreserved hepatocytes, HPLC/UV/MS) is reported as “trace”.

As to `C[C@]1(c2ccc(Cl)cn2)Oc2cccc(C3CCN(Cc4nc5ccc(C(=O)O[C@@H]6O[C@H](C(=O)O)[C@@H](O)[C@H](O)[C@H]6O)cc5n4C[C@@H]4CCO4)CC3)c2O1` [Metabolite 751b], the Emax (usually the maximal effect, on the per cent scale that the assay sets) on human GLP-1R is 68%. Besides, the “metabolite of Compound 2 observed in rabbit hepatocyte incubations” value in the data set with rabbit hepatocytes is “observed in all hepatocyte incubations”. Also, the “detected in rat bile” value in data set [1] is on record as “observed”; in data set [1] (listed as m/z 751b), “detected”. Moreover, the “metabolite of Compound 2 observed in mouse hepatocyte incubations” value in the data set on mouse hepatocytes was “observed in all hepatocyte incubations”. In addition, the “metabolite of Compound 2 observed in rat hepatocyte incubations” value in the data set on rat hepatocytes is “observed in all hepatocyte incubations”.
